The test system of this test is CEM cells HIV-1 protection, formazan growth assay. The experiment in a line: NCI AIDS Antiviral Assay. The note with it: for IC50: measured here: growth of uninfected CEM cells. An outline of the steps:
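Five concentrations of each compound were applied to infected and uninfected human CEM cells. Protection from HIV-1 was judged from growth measured with a soluble formazan assay.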

SMILES strings stand for the structures. Where “and” joins values, the source holds several entries; their conditions need not be identical. Equal values may be shown once. Calls of active or inactive are those of the source.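 Rule for the calls: active = compounds giving half or more protection of infected cells from virus-caused growth loss, again on retest; inactive = the rest.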 Where a SMILES comes first, the peptide text is derived from it. The star is where a group is joined. OSu = O=C1CCC(=O)N1O* A value given as a limit tells only on which side of the number the result lay.

By EC50 is commonly meant the concentration at which the effect is half-maximal. Usually IC50 stands for the concentration that gives 50% inhibition. Low values mean greater potency, high ones weaker potency. In the case of `COc1ccc(-c2nc3sc(-c4ccc(OC)c(OC)c4)nc3s2)cc1OC`, the EC50 was greater than 200 µM and the half-inhibitory concentration (IC50) was greater than 200 µM.
On to `CCCCCCCCCCCCCCCCCCOP1(=O)OCCO1`, for which the EC50 was greater than 50.1 µM and the IC50 is greater than 50.1 µM.
Turning to `[Au+].[Au+].[Au+].[c-]1nccn1Cc1ccccc1.[c-]1nccn1Cc1ccccc1.[c-]1nccn1Cc1ccccc1`, the EC50 is greater than 3.55 µM and the IC50 is greater than 3.55 µM.
As to `C=CCC1(C(=O)OC(C)(C)C)C(OC)=C(C(=O)OC(C)(C)C)C2C1C(C(=O)OC(C)(C)C)=C(OC)C2(CC=C)C(=O)OC(C)(C)C` (stereo not given), the result was inactive.
Still for that read-out and setting: as for `CCCCCCCCc1cc2c(O)c(c1)Cc1cc(CCCCCCCC)cc(c1O)Cc1cc(CCCCCCCC)cc(c1O)Cc1cc(CCCCCCCC)cc(c1O)Cc1cc(CCCCCCCC)cc(c1O)Cc1cc(CCCCCCCC)cc(c1O)C2`, the entry is “inactive”.
`CCCCOC(=O)c1c2nc3c(C(=O)OCCCC)ccc(C)c3oc-2c(C)c(=O)c1NC(C)=O`: the EC50 is greater than 151 µM and the IC50 is 24.5 µM.
Regarding `O=C(Cc1ccccc1)Nc1ccccc1Cl`, the EC50 is greater than 204 µM and the IC50 was greater than 204 µM.
For `Cc1nc(SCC(=O)Nc2ccc(Cl)cc2)c2sc(=S)n(-c3ccccc3)c2n1`, the EC50 is greater than 200 µM and the IC50 was greater than 200 µM.
For `COc1ccc2c(O)c(S(=O)(=O)c3ccc(C)cc3)c(=O)oc2c1`, the EC50 is greater than 200 µM and the IC50 is 132 µM.
Turning to `NC(=N/N=C(/c1ccccc1)c1ccc(N)cc1)/C(N)=N\N=C(/c1ccccc1)c1ccc(N)cc1`, the outcome was inactive.
For `CSc1nc2c3ccccc3ccn2c1C(=O)N/N=C/c1ccccc1`, the EC50 was greater than 100 µM and the IC50 is greater than 100 µM.
As for `N#CCC(O)CC#N`, the result was inactive.
As for `O=C1CSC2=NCCN12`, the EC50 is greater than 200 µM, the result was inactive and the IC50 is greater than 200 µM.
With `N#CCCN(CCC#N)c1ccc(/C=C2\N=C(c3ccccc3)N(c3ccc(C(=O)O)cc3)C2=O)cc1`, the EC50 was greater than 200 µM and the IC50 was 33.9 µM.
On the same counts, the results for `Cc1ccc(-c2c(C#N)c(S)n(NS(=O)(=O)c3ccccc3)c(=O)c2C#N)cc1` are greater than 200 µM and 18.6 µM.
The corresponding values for `CC(C)OP(=S)(NC(=S)c1ccccc1)OC(C)C` are greater than 741 µM and 178 µM.
On the same counts, the results for `NCCCCC(NC(=O)C(N)Cc1ccc(O)cc1)C(=O)NC(CCCCN)C(=O)NC(CCCCN)C(=O)ON1C(=O)CCC1=O` (stereo not given) (H-YKKK-OSu; configuration not given here) are 162 µM and greater than 200 µM.
Take `CN1CCC(CNC(=O)CCCCCCCCC(=O)NCC2(c3ccccc3)CCN(C)CC2)(c2ccccc2)CC1`: the 50% effective concentration (EC50) was 97.7 µM and > 100 µM; the IC50 is greater than 100 µM.
`C[C@@H]([C@H]1CC[C@@]2(C)[C@@H]3CC[C@@H]4C(=CC3=CC[C@]12C)CC[C@H](N(C)C)C4(C)C)N(C)C`: the EC50 is greater than 200 µM and the IC50 was greater than 200 µM.
Regarding `O=c1c2c([nH]c3ccccc13)CSC2`, the EC50 is greater than 67.6 µM and the IC50 was greater than 67.6 µM.
Turning to `NC(=S)N/N=C1\CCCCC1C(O)(C(F)(F)Cl)C(F)(F)Cl` (stereo not given), the EC50 was greater than 200 µM and the concentration for half-maximal inhibition (IC50) was greater than 200 µM.
Consider `CNC(=O)Oc1cccc(CN(C)C)c1`, for which the EC50 was greater than 200 µM and the IC50 was greater than 200 µM.
On to `Cn1cc2ccccc2c1-c1nc(N)nc(F)n1`, for which the EC50 is greater than 107 µM and the IC50 was found to be 64.6 µM.
`CC(CNC(=O)CCC(N)C(=O)O)C(=O)O` (stereo not given): the result was inactive.
In the case of `Cc1cc2occ(/C=C\C3=C(C#N)C(=O)OC(C)(C)C3)c(=O)c2cc1C`, the EC50 was greater than 7.76 µM and the IC50 was greater than 7.76 µM.
Turning to `CCOC(=O)C(Cl)(NC(=O)OCc1ccccc1)C(F)(F)F` (stereo not given), the result was inactive.
`COc1c(C)c(O)c2c(c1C)OC(c1ccccc1)CC2=O` (stereo not given): the EC50 is greater than 17.4 µM and the IC50 was greater than 17.4 µM.
`CCN1C(=O)N(C)C(O)c2c1nc1ccccn1c2=O` (stereo not given): the EC50 is greater than 182 µM and the concentration for half-maximal inhibition (IC50) is 11.5 µM.
`CCOC(=O)C(=O)Nc1ccc(C)cc1C`: the EC50 is greater than 1120 µM and the half-inhibitory concentration (IC50) turned out to be 646 µM.
Take `CCOC(=O)C12c3[nH]c4ccccc4c3CCN1CC1=NOC(=O)C12` (stereo not given): the EC50 is greater than 132 µM and the IC50 was greater than 132 µM.
As for `N=c1oc2ccc(Cl)cc2cc1C(=O)NCc1ccccc1`, the EC50 is greater than 200 µM.
Regarding `COc1ccc(CC2COC(=O)[C@@H]2Cc2ccc(O)cc2)cc1OC` (stereo not given in full), the EC50 is greater than 200 µM and the IC50 was found to be 44.7 µM.
Consider `O=[N+]([O-])c1ccc(C(Cl)S(=O)(=O)c2ccccc2)cc1` (stereo not given), for which the EC50 was greater than 83.2 µM and the IC50 is 4.79 µM.
For the compound `COC1=NS(=O)(=O)C2CCCCCCC2O1` (stereo not given), the EC50 was greater than 1000 µM and the IC50 was greater than 1000 µM.
For the compound `Cc1ccc2ccc3c(-c4ccccc4)cc(C)nc3c2n1.Cc1ccc2ccc3c(-c4ccccc4)cc(C)nc3c2n1.O=C1OC(C(O)C[O-])C(O)=C1O.[Cu+]`, the EC50 is greater than 12.6 µM and the IC50 came to 0.55 µM.
The corresponding values for `C1CCC2(CC1)CCCN2` are greater than 200 µM and greater than 200 µM.
The corresponding values for `c1ccc2c(c1)nnn1c3ncccc3nc21` are greater than 58.9 µM and 23.4 µM.
As for `O=C(CC(=O)Nc1ccccc1F)N/N=C/c1ccccc1`, the outcome was inactive.
As to `COC(=O)/C(C#N)=C(\N)c1c(C)c2ccccc2oc1=N`, the EC50 was greater than 200 µM and the IC50 was greater than 200 µM.
On to `COc1cc([N+](=O)[O-])ccc1N1C(=O)C2c3[nH]c4ccccc4c3C3CCC(C(C)(C)C)CC3C2C1=O` (stereo not given), for which the EC50 was greater than 200 µM and the 50% inhibitory concentration (IC50) was 138 µM.
As for `CSc1c(S(C)=O)[nH]c2cc(Br)cc(Br)c12` (stereo not given), the result was inactive.
With `CCCNC1=C2C[C@@H](C)C[C@@H](OC)[C@@H](OC(=O)CCCN)[C@H](C)/C=C(\C)[C@@H](OC(N)=O)[C@H](OC)/C=C\C=C(/C)C(=O)NC(=CC1=O)C2=O`, the EC50 was greater than 200 µM and the IC50 was 11.5 µM.
Turning to `O=[N+]([O-])/C(C(Cl)=C(Cl)Cl)=C1\NCCO1`, the EC50 was greater than 200 µM and the IC50 turned out to be 115 µM.
As for `O=P(O)(O)C(CSc1ccccc1)P(=O)(O)O`, the result was inactive.
For `CCCC12C(C(=O)OC)C(=O)C(C(=O)OC)C1(C)C(C(=O)OC)C(=O)C2C(=O)OC` (stereo not given), the EC50 was greater than 138 µM and the half-maximal inhibitory concentration (IC50) was 97.7 µM.
On the same counts, the results for `C=C(C)C1Cc2c(cc(O)c3c(=O)c4c(oc23)C(O)Oc2cc(OC)c(OC)cc2-4)O1` (stereo not given) are greater than 200 µM and 72.4 µM.
On the same counts, the results for `CCc1cccc(C(C)C)c1NC(=O)C(=O)C(CC(=O)Nc1ccc(Cl)c(Cl)c1)C(=O)OC` (stereo not given) are greater than 10.7 µM and greater than 10.7 µM.
Regarding `O=C1N=C2SC(=S)NC(=S)N2NC12c1ccccc1-c1ccccc12`, the EC50 was greater than 200 µM and the IC50 was 32.4 µM.
With `CCCCCCCCCCCC(=O)c1c(O)cccc1O`, the EC50 was greater than 17.8 µM and the IC50 is 15.5 µM.
On the same counts, the results for `Cc1ccc(S(=O)(=O)n2c3c(c4ccccc42)CCN2CCC(Br)C[C@@H]32)cc1` (stereo not given in full) are greater than 200 µM and 20.9 µM.
For `C1CN2CCOB(O1)OCC2`, the EC50 is greater than 200 µM and the IC50 was greater than 200 µM.
With `COC(=O)C1C2CC3C1C3C2C(=O)OC` (stereo not given), the EC50 was greater than 200 µM and the IC50 was greater than 200 µM.
Take `Fc1ccc(CSc2cnnc(SCc3ccc(F)cc3)c2SCc2ccc(F)cc2)cc1`: the EC50 was greater than 200 µM and the IC50 was 39.8 µM.
The corresponding values for `C=C=C(CC1CCCCC1=O)S(=O)(=O)c1ccccc1` (stereo not given) are greater than 200 µM and 6.46 µM.
On the same counts, the results for `CCOC(=O)C(C(=O)OCC)S(C)(=O)=O` are greater than 251 µM and greater than 251 µM.
Take `CCN(CC)CCn1ncc2c3c(=O)c4cccnc4n(CCN(CC)CC)c3ccc21`: the EC50 is greater than 200 µM and the IC50 is 3.47 µM.
Turning to `O=C(/C=C/c1ccccc1)c1ccc(NCc2nc3ccccc3[nH]2)cc1`, the EC50 is greater than 20.4 µM and the IC50 worked out at 11 µM.
On the same counts, the results for `CS(=O)(=O)OCCNC[C@@H](O)[C@@H](O)CNCCOS(C)(=O)=O` are greater than 692 µM and 1.38 µM.
As to `C=Cc1c2[n-]c(c1C)/C=c1\[n-]/c(c(C)c1C=C)=C\c1[n-]c(c(CCC(=O)O)c1C)/C=c1\[n-]/c(c(C)c1CCC(=O)O)=C\2.[Co]`, the EC50 is greater than 74.1 µM and the IC50 was greater than 74.1 µM.
Take `O=C1c2ccc3c4ccccc4n(-c4ccccc4)c3c2C(=O)N1c1ccc(Cl)cc1`: the result was inactive.
Take `Fc1ccc(/C=N\N=C(N/N=C/c2ccc(F)cc2)N/N=C/c2ccc(F)cc2)cc1`: the EC50 was greater than 200 µM and the 50% inhibitory concentration (IC50) was determined as 19.5 µM.
Consider `COc1ccc2c(c1)CCN1CCc3ccccc3CC21` (stereo not given), for which the EC50 is greater than 200 µM and the IC50 is 53.7 µM.
On the same counts, the results for `C[C@H](OCc1ccccc1)C(=O)N1CCS(=O)(=O)N2CCC[C@@H]2C1=O` are greater than 490 µM and greater than 490 µM.
Turning to `O=C(/C=C/c1ccc(O)cc1)OC[C@@H](O)COC1OC(CO)C(O)C(O)C1O` (stereo not given in full), the outcome was inactive.
Still for that read-out and setting: as for `O=C(OCC1CO1)c1cccs1` (stereo not given), the entry is “inactive”.
Consider `NC(=O)N=Nc1c2ccccc2n2[nH]ccc12`, for which the EC50 was greater than 200 µM and the half-inhibitory concentration (IC50) came to 81.3 µM.
On the same counts, the results for `CC1CN(c2ccccc2)NC1=O` (stereo not given) are greater than 200 µM and greater than 200 µM.
As for `N#C/C(=C\c1cc(Br)c(O)c(Br)c1)c1ccccn1`, the EC50 is greater than 200 µM and the half-inhibitory concentration (IC50) is 31.6 µM.
Turning to `FC(F)(F)c1ccc2nc(Nc3ccc(Cl)c(Cl)c3)c(-c3ccccc3)nc2c1`, the EC50 was greater than 12 µM and the IC50 worked out at 8.13 µM.
Consider `CCOc1ccc2nc(NC(=O)c3c/c(=N\NC(=O)C[N+](C)(C)C)c4ccc(O)cc4o3)sc2c1`, for which the EC50 was greater than 178 µM and the IC50 stood at 2.24 µM.
On the same counts, the results for `CC1=CC(C)(C)NN1C1=NS(=O)(=O)c2ccccc2N1C` are greater than 200 µM and greater than 200 µM.

Source of the values: PubChem BioAssay AID179 (DTP/NCI, 2004).
